Data from patent publication US11807625B2, “Capsid inhibitors for the prevention of HIV” (Gilead Sciences, Inc., priority 2019, dated 2023).
Read-outs that look alike come from different tables or passages of the source.

Assay: PK of compound of Formula (Ia) after single subcutaneous dose of solution formulations in Wistar Han rats
Assay type: in vivo
Conditions: male, Wistar Han, rat, plasma, mean ± SD, SC 50 mg/kg; for AUC(0-t) / Cmax: sc, 50 mg/kg
Method: Formulations containing the compound of Formula (Ia), or a pharmaceutically acceptable salt thereof, were prepared as solutions and optionally administered subcutaneously or intramuscularly to rats, rabbits, and/or dogs.
A solution of about 400 mg/mL of the compound of Formula (Ia) having 19.14 w/w % water, 40.66 w/w % PEG 300, 35.20 w/w % of a sodium salt of a compound of Formula (Ia), and 5.00% ethanol was prepared. The solution was administered subcutaneously to male Wistar Han rats at a dose level of about 50 mg/kg and dose volume of 0.125 mL/kg and the pharmacokinetic (PK) profile was determined.
A solution of about 500 mg/mL of the compound of Formula (Ia) having 16.64 w/w % water, 35.36 w/w % PEG 300, 43.00 w/w % of a sodium salt of a compound of Formula (Ia), and 5.00% ethanol was prepared. The solution was administered subcutaneously to male Wistar Han rats at a dose level of about 50 mg/kg and dose volume of 0.1 mL/kg and the pharmacokinetic (PK) profile was determined.
A solution of about 400 mg/mL of the compound of Formula (Ia) having 17.00 w/w % water, 36.40 w/w % PEG 300, 35.20 w/w % of a sodium salt of a compound of Formula (Ia), 5.00 w/w % ethanol, and 6.40 w/w % poloxamer 188 was prepared. The solution was administered subcutaneously to male beagle dogs at a dose level of about 12 mg/kg and male Wistar Han rats at a dose level of about 50 mg/kg. The pharmacokinetic profiles were determined, and the results for dogs are summarized in Table and Table, while the results for rats are summarized in Table and Table below.
A solution of about 500 mg/mL of the compound of Formula (Ia) having 14.06 w/w % water, 30.12 w/w % PEG 300, […] of a sodium salt of a compound of Formula (Ia), 5.00 w/w % ethanol, and 6.40 w/w % poloxamer 188 was prepared. The solution was administered subcutaneously to male beagle dogs at a dose level of about 12 mg/kg and male Wistar Han rats at a dose level of about 50 mg/kg. The pharmacokinetic profiles were determined, and the results for dogs are summarized in Table and Table, while the results for rats are summarized in Table and Table below.
A solution of about 300 mg/mL of the compound of Formula (Ia) having 23.33 w/w % water, 48.99 w/w % PEG 300, 26.47 w/w % of a sodium salt of a compound of Formula (Ia), and 1.21 w/w % poloxamer 188 was prepared. The solution was administered subcutaneously to male beagle dogs at a dose level of about 6 mg/kg and male Wistar Han rats at a dose level of about 50 mg/kg. The pharmacokinetic profiles were determined, and the results for dogs are summarized in Table and Table, while the results for rats are summarized in Table and Table below.
A solution of about 400 mg/mL of the compound of Formula (Ia) having 18.80 w/w % water, 40.25 w/w % PEG 300, 34.38 w/w % of a sodium salt of a compound of Formula (Ia), 5.00 w/w % ethanol, and 1.57 w/w % poloxamer 188 was prepared. The solution was administered subcutaneously to male beagle dogs at a dose level of about 12 mg/kg and male Wistar Han rats at a dose level of about 50 mg/kg. The pharmacokinetic profiles were determined, and the results for dogs are summarized in Table and Table, while the results for rats are summarized in Table and Table below.
A solution of about 500 mg/mL of the compound of Formula (Ia) having 16.29 w/w % water, 34.88 w/w % PEG 300, 41.92 w/w % of a sodium salt of a compound of Formula (Ia), 5.00 w/w % ethanol, and 1.91 w/w % poloxamer 188 was prepared. The solution was administered subcutaneously to male beagle dogs at a dose level of about 12 mg/kg and male Wistar Han rats at a dose level of about 50 mg/kg. The pharmacokinetic profiles were determined, and the results for dogs are summarized in Table and Table, while the results for rats are summarized in Table and Table below.
A solution of about 400 mg/mL of the compound of Formula (Ia) having 20.90 w/w % water, 44.72 w/w % PEG 300, and 34.38 w/w % of a sodium salt of a compound of Formula (Ia) was prepared. […]

[1] = n = 5 rats, solution T, 400 mg/mL

CC(C)(C#Cc1ccc(-c2ccc(Cl)c3c(NS(C)(=O)=O)nn(CC(F)(F)F)c23)c([C@H](Cc2cc(F)cc(F)c2)NC(=O)Cn2nc(C(F)(F)F)c3c2C(F)(F)[C@@H]2C[C@H]32)n1)S(C)(=O)=O [compound of Formula (Ia)]
AUC(0-t) (n = 3 rats, solution R, 400 mg/mL, read-out: AUC0-1344h): 402 ± 58 µM·h | AUC(0-t) (n = 3 rats, solution R, 400 mg/mL, read-out: AUC0-1680h): 504 ± 80 µM·h | AUC(0-t) (n = 3 rats, solution R, 400 mg/mL, read-out: AUC0-2352h): 649 ± 95 µM·h | AUC(0-t) (n = 3 rats, solution R, 400 mg/mL, read-out: AUC0-3024h): 752 ± 92 µM·h | AUC(0-t) (n = 3 rats, solution R, 400 mg/mL, read-out: AUC0-3696h): 825 ± 80 µM·h | AUC(0-t) (n = 3 rats, solution R, 400 mg/mL, read-out: AUC0-4704h): 915 ± 44 µM·h | AUC(0-t) (n = 3 rats, solution R, 400 mg/mL, read-out: AUC0-5376h): 958 ± 21 µM·h | AUC(0-t) (n = 3 rats, solution R, 400 mg/mL, read-out: AUC0-6048h): 988 ± 4 µM·h | AUC(0-t) (n = 3 rats, solution R, 400 mg/mL, read-out: AUC0-7392h): 1020 ± 18 µM·h | AUC(0-t) (n = 3 rats, solution R, 400 mg/mL, read-out: AUC0-8064h): 1030 ± 25 µM·h | Cmax (n = 3 rats, solution S, 500 mg/mL): 328 ± 131 nM | AUC(0-t) (n = 3 rats, solution S, 500 mg/mL, read-out: AUC0-24 h): 2.47 ± 0.39 µM·h | AUC(0-t) (n = 3 rats, solution S, 500 mg/mL, read-out: AUC0-168 h): 19.7 ± 3.1 µM·h | AUC(0-t) (n = 3 rats, solution S, 500 mg/mL, read-out: AUC0-336 h): 44.2 ± 7.5 µM·h | AUC(0-t) (n = 3 rats, solution S, 500 mg/mL, read-out: AUC0-672 h): 133 ± 40 µM·h | AUC(0-t) (n = 3 rats, solution S, 500 mg/mL, read-out: AUC0-1008 h): 233 ± 79 µM·h | AUC(0-t) (n = 3 rats, solution S, 500 mg/mL, read-out: AUC0-1344 h): 334 ± 120 µM·h | AUC(0-t) (n = 3 rats, solution S, 500 mg/mL, read-out: AUC0-1680 h): 426 ± 148 µM·h | AUC(0-t) (n = 3 rats, solution S, 500 mg/mL, read-out: AUC0-2352 h): 554 ± 185 µM·h | AUC(0-t) (n = 3 rats, solution S, 500 mg/mL, read-out: AUC0-3024 h): 652 ± 203 µM·h | AUC(0-t) (n = 3 rats, solution S, 500 mg/mL, read-out: AUC0-3696 h): 722 ± 216 µM·h | AUC(0-t) (n = 3 rats, solution S, 500 mg/mL, read-out: AUC0-4704 h): 817 ± 224 µM·h | AUC(0-t) (n = 3 rats, solution S, 500 mg/mL, read-out: AUC0-5376 h): 861 ± 226 µM·h | AUC(0-t) (n = 3 rats, solution S, 500 mg/mL, read-out: AUC0-6048 h): 896 ± 220 µM·h | AUC(0-t) (n = 3 rats, solution S, 500 mg/mL, read-out: AUC0-6720 h): 923 ± 229 µM·h | AUC(0-t) (n = 3 rats, solution S, 500 mg/mL, read-out: AUC0-7392 h): 945 ± 229 µM·h | AUC(0-t) (n = 3 rats, solution S, 500 mg/mL, read-out: AUC0-8064 h): 964 ± 228 µM·h | AUC(0-t) (n = 3 rats, solution V, 300 mg/mL, read-out: AUC0-24 h): 3.66 ± 4.29 µM·h | AUC(0-t) (n = 3 rats, solution V, 300 mg/mL, read-out: AUC0-168 h): 24.5 ± 5.4 µM·h | AUC(0-t) (n = 3 rats, solution V, 300 mg/mL, read-out: AUC0-336 h): 50.1 ± 9.2 µM·h | AUC(0-t) (n = 3 rats, solution V, 300 mg/mL, read-out: AUC0-672 h): 137 ± 27 µM·h | AUC(0-t) (n = 3 rats, solution V, 300 mg/mL, read-out: AUC0-1008 h): 237 ± 52 µM·h | AUC(0-t) (n = 3 rats, solution V, 300 mg/mL, read-out: AUC0-1344 h): 331 ± 85 µM·h | AUC(0-t) (n = 3 rats, solution V, 300 mg/mL, read-out: AUC0-1680 h): 423 ± 96 µM·h | AUC(0-t) (n = 3 rats, solution V, 300 mg/mL, read-out: AUC0-2352 h): 554 ± 113 µM·h | AUC(0-t) (n = 3 rats, solution V, 300 mg/mL, read-out: AUC0-3024 h): 646 ± 121 µM·h | AUC(0-t) (n = 3 rats, solution V, 300 mg/mL, read-out: AUC0-3696 h): 700 ± 121 µM·h | AUC(0-t) (n = 3 rats, solution V, 300 mg/mL, read-out: AUC0-4704 h): 720 ± 120 µM·h | Cmax [1]: 450 ± 155 nM | AUC(0-t) (n = 5 rats, solution T, 400 mg/mL, read-out: AUC0-24 h): 5.49 ± 1.6 µM·h | AUC(0-t) (n = 5 rats, solution T, 400 mg/mL, read-out: AUC0-168 h): 40.6 ± 15.3 µM·h | AUC(0-t) (n = 5 rats, solution T, 400 mg/mL, read-out: AUC0-336 h): 76.4 ± 25.3 µM·h | AUC(0-t) (n = 5 rats, solution T, 400 mg/mL, read-out: AUC0-672 h): 173 ± 75.6 µM·h | AUC(0-t) (n = 5 rats, solution T, 400 mg/mL, read-out: AUC0-1008 h): 313 ± 157 µM·h | AUC(0-t) (n = 5 rats, solution T, 400 mg/mL, read-out: AUC0-1344 h): 394 ± 185 µM·h | AUC(0-t) (n = 5 rats, solution T, 400 mg/mL, read-out: AUC0-1680 h): 485 ± 195 µM·h | AUC(0-t) (n = 5 rats, solution T, 400 mg/mL, read-out: AUC0-2352 h): 581 ± 146 µM·h | AUC(0-t) (n = 5 rats, solution T, 400 mg/mL, read-out: AUC0-3024 h): 655 ± 112 µM·h | AUC(0-t) (n = 5 rats, solution T, 400 mg/mL, read-out: AUC0-3696 h): 679 ± 103 µM·h | AUC(0-t) (n = 5 rats, solution T, 400 mg/mL, read-out: AUC0-4704 h): 718 ± 88 µM·h | AUC(0-t) (n = 5 rats, solution T, 400 mg/mL, read-out: AUC0-5376 h): 745 ± 76 µM·h | AUC(0-t) (n = 5 rats, solution T, 400 mg/mL, read-out: AUC0-6048 h): 766 ± 66 µM·h | AUC(0-t) (n = 5 rats, solution T, 400 mg/mL, read-out: AUC0-6720 h): 783 ± 59 µM·h | Cmax (n = 5 rats, solution U, 500 mg/mL): 362 ± 147 nM | AUC(0-t) (n = 5 rats, solution U, 500 mg/mL, read-out: AUC0-24 h): 3.74 ± 0.78 µM·h | AUC(0-t) (n = 5 rats, solution U, 500 mg/mL, read-out: AUC0-168 h): 29.8 ± 7.5 µM·h | AUC(0-t) (n = 5 rats, solution U, 500 mg/mL, read-out: AUC0-336 h): 63.2 ± 20.7 µM·h | AUC(0-t) (n = 5 rats, solution U, 500 mg/mL, read-out: AUC0-672 h): 159 ± 77 µM·h | AUC(0-t) (n = 5 rats, solution U, 500 mg/mL, read-out: AUC0-1008 h): 338 ± 141 µM·h | AUC(0-t) (n = 5 rats, solution U, 500 mg/mL, read-out: AUC0-1344 h): 409 ± 159 µM·h | AUC(0-t) (n = 5 rats, solution U, 500 mg/mL, read-out: AUC0-1680 h): 529 ± 194 µM·h | AUC(0-t) (n = 5 rats, solution U, 500 mg/mL, read-out: AUC0-2352 h): 610 ± 215 µM·h | AUC(0-t) (n = 5 rats, solution U, 500 mg/mL, read-out: AUC0-3024 h): 669 ± 233 µM·h | AUC(0-t) (n = 5 rats, solution U, 500 mg/mL, read-out: AUC0-3696 h): 692 ± 233 µM·h | AUC(0-t) (n = 5 rats, solution U, 500 mg/mL, read-out: AUC0-4704 h): 728 ± 249 µM·h | AUC(0-t) (n = 5 rats, solution U, 500 mg/mL, read-out: AUC0-5376 h): 756 ± 256 µM·h | AUC(0-t) (n = 5 rats, solution U, 500 mg/mL, read-out: AUC0-6048 h): 781 ± 261 µM·h | AUC(0-t) (n = 5 rats, solution U, 500 mg/mL, read-out: AUC0-6720 h): 802 ± 266 µM·h | AUC (n = 3 rats, solution R, 400 mg/mL, read-out: AUC0-6720n): 1007 ± 8 µM·h | Tmax [1]: 18.8 ± 17.5 days
